Laboratory results published in ChEMBL document CHEMBL5303573, “Mapping human microbiome drug metabolism by gut bacteria and their genes” (Nature, 2019).

Tests used:
[1] = The drug is tested on Bacteroides fragilis strain: HMW610 for biotransformation. The drug concentrations were measured before and after a 12-h incubation by liquid-chromatography-coupled mass spectrometry (LC–MS); details: 2 µM
[2] = The drug is tested on Bacteroides fragilis strain: HMW615 for biotransformation. The drug concentrations were measured before and after a 12-h incubation by liquid-chromatography-coupled mass spectrometry (LC–MS); details: 2 µM
[3] = The drug is tested on Bacteroides ovatus strain: ATCC8483 for biotransformation. The drug concentrations were measured before and after a 12-h incubation by liquid-chromatography-coupled mass spectrometry (LC–MS); details: 2 µM
[4] = The drug is tested on Bacteroides uniformis strain: ATCC8492 for biotransformation. The drug concentrations were measured before and after a 12-h incubation by liquid-chromatography-coupled mass spectrometry (LC–MS); details: 2 µM
[5] = The drug is tested on Bacteroides xylanisolvens strain: DSM18836 for biotransformation. The drug concentrations were measured before and after a 12-h incubation by liquid-chromatography-coupled mass spectrometry (LC–MS); details: 2 µM
[6] = The drug is tested on Odoribacter splanchnicus strain: fecal isolate for biotransformation. The drug concentrations were measured before and after a 12-h incubation by liquid-chromatography-coupled mass spectrometry (LC–MS); details: 2 µM
[7] = The drug is tested on Parabacteroides merdae strain: ATCC43184 for biotransformation. The drug concentrations were measured before and after a 12-h incubation by liquid-chromatography-coupled mass spectrometry (LC–MS); details: 2 µM
[8] = The drug is tested on Blautia hansenii strain: DSM20583 for biotransformation. The drug concentrations were measured before and after a 12-h incubation by liquid-chromatography-coupled mass spectrometry (LC–MS); details: 2 µM
[9] = The drug is tested on Blautia luti strain: DSM14534 for biotransformation. The drug concentrations were measured before and after a 12-h incubation by liquid-chromatography-coupled mass spectrometry (LC–MS); type: ADME; design: dose 2 uM, timepoint 0 vs 12 hours; details: 2 µM
[10] = The drug is tested on Dorea formicigenerans strain: ATCC27755 for biotransformation. The drug concentrations were measured before and after a 12-h incubation by liquid-chromatography-coupled mass spectrometry (LC–MS); details: 2 µM
[11] = The drug is tested on Enterococcus faecalis strain: V583 for biotransformation. The drug concentrations were measured before and after a 12-h incubation by liquid-chromatography-coupled mass spectrometry (LC–MS); details: 2 µM
[12] = The drug is tested on Ruminococcus torques strain: ATCC27756 for biotransformation. The drug concentrations were measured before and after a 12-h incubation by liquid-chromatography-coupled mass spectrometry (LC–MS); type: ADME; design: dose 2 uM, timepoint 0 vs 12 hours; details: 2 µM
[13] = The drug is tested on Edwardsiella tarda strain: ATCC23685 for biotransformation. The drug concentrations were measured before and after a 12-h incubation by liquid-chromatography-coupled mass spectrometry (LC–MS); details: 2 µM
[14] = The drug is tested on Providencia rettgeri strain: DSM1131 for biotransformation. The drug concentrations were measured before and after a 12-h incubation by liquid-chromatography-coupled mass spectrometry (LC–MS); type: ADME; design: dose 2 uM, timepoint 0 vs 12 hours; details: 2 µM
[15] = bifidobacterium adolescentis, 12 h, 2 µM
Description: The drug is tested on Bifidobacterium adolescentis strain: ATCC 15703 for biotransformation. The drug concentrations were measured before and after a 12-h incubation by liquid-chromatography-coupled mass spectrometry (LC–MS)

[16] = bacteroides thetaiotaomicron, 12 h, 2 µM
Description: The drug is tested on Bacteroides thetaiotaomicron strain: VPI-5482 for biotransformation. The drug concentrations were measured before and after a 12-h incubation by liquid-chromatography-coupled mass spectrometry (LC–MS)

[17] = enterocloster bolteae, 12 h, 2 µM
Description: The drug is tested on Clostridium bolteae strain: ATCCBAA-613 for biotransformation. The drug concentrations were measured before and after a 12-h incubation by liquid-chromatography-coupled mass spectrometry (LC–MS)

[18] = limosilactobacillus reuteri cf48-3a, 12 h, 2 µM
Description: The drug is tested on Lactobacillus reuteri CF48-3A strain: BEI HM-102 for biotransformation. The drug concentrations were measured before and after a 12-h incubation by liquid-chromatography-coupled mass spectrometry (LC–MS)

[19] = akkermansia muciniphila, 12 h, 2 µM
Description: The drug is tested on Akkermansia muciniphila strain: ATCC BAA-835 for biotransformation. The drug concentrations were measured before and after a 12-h incubation by liquid-chromatography-coupled mass spectrometry (LC–MS)

[20] = The drug is tested on Bacteroides caccae strain: ATCC43185 for biotransformation. The drug concentrations were measured before and after a 12-h incubation by liquid-chromatography-coupled mass spectrometry (LC–MS); details: 2 µM

| SMILES | Bacterial Biotransformation [1] | Bacterial Biotransformation [2] | Bacterial Biotransformation [3] | Bacterial Biotransformation [4] | Bacterial Biotransformation [5] | Bacterial Biotransformation [6] | Bacterial Biotransformation [7] | Bacterial Biotransformation [8] | Bacterial Biotransformation [9] | Bacterial Biotransformation [10] | Bacterial Biotransformation [11] | Bacterial Biotransformation [12] | Bacterial Biotransformation [13] | Bacterial Biotransformation [14] | Bacterial Biotransformation [15] | Bacterial Biotransformation [16] | Bacterial Biotransformation [17] | Bacterial Biotransformation [18] | Bacterial Biotransformation [19] | Bacterial Biotransformation [20] |
| --- | --- | --- | --- | --- | --- | --- | --- | --- | --- | --- | --- | --- | --- | --- | --- | --- | --- | --- | --- | --- |
| CC(=O)OCC(CCn1cnc2cnc(N)nc21)COC(C)=O [FAMCICLOVIR] | Compound metabolized | Compound metabolized | Compound metabolized | Compound metabolized | Compound metabolized | Compound metabolized | Compound metabolized | Compound NOT metabolized | Compound NOT metabolized | Compound NOT metabolized |  | Compound NOT metabolized | Compound NOT metabolized | Compound NOT metabolized |  | Compound metabolized | Compound NOT metabolized | Compound NOT metabolized | Compound NOT metabolized | Compound metabolized |
| O=C1[C@H](CC[C@H](O)c2ccc(F)cc2)[C@@H](c2ccc(O)cc2)N1c1ccc(F)cc1 [EZETIMIBE] | Compound NOT metabolized | Compound NOT metabolized |  | Compound metabolized | Compound NOT metabolized | Compound NOT metabolized | Compound NOT metabolized | Compound NOT metabolized | Compound NOT metabolized | Compound NOT metabolized | Compound NOT metabolized | Compound NOT metabolized | Compound NOT metabolized | Compound NOT metabolized |  | Compound NOT metabolized | Compound NOT metabolized | Compound NOT metabolized | Compound NOT metabolized |  |
| CCN(CC)C(=O)C1(c2ccccc2)CC1CN (centres undefined) | Compound NOT metabolized | Compound NOT metabolized | Compound NOT metabolized |  | Compound NOT metabolized | Compound NOT metabolized | Compound NOT metabolized | Compound NOT metabolized | Compound NOT metabolized | Compound NOT metabolized | Compound NOT metabolized | Compound NOT metabolized | Compound NOT metabolized | Compound NOT metabolized | Compound NOT metabolized | Compound NOT metabolized | Compound NOT metabolized | Compound NOT metabolized | Compound NOT metabolized | Compound NOT metabolized |
| Cc1cc2c(cc1S(N)(=O)=O)S(=O)(=O)CCC2 | Compound NOT metabolized | Compound NOT metabolized | Compound NOT metabolized | Compound NOT metabolized | Compound NOT metabolized | Compound NOT metabolized | Compound NOT metabolized | Compound NOT metabolized | Compound NOT metabolized |  |  | Compound NOT metabolized | Compound NOT metabolized | Compound NOT metabolized | Compound NOT metabolized | Compound NOT metabolized | Compound NOT metabolized | Compound NOT metabolized | Compound NOT metabolized | Compound NOT metabolized |

More lines, now with the values ahead:

| Bacterial Biotransformation [1] | Bacterial Biotransformation [2] | Bacterial Biotransformation [3] | Bacterial Biotransformation [4] | Bacterial Biotransformation [5] | Bacterial Biotransformation [6] | Bacterial Biotransformation [7] | Bacterial Biotransformation [8] | Bacterial Biotransformation [9] | Bacterial Biotransformation [10] | Bacterial Biotransformation [11] | Bacterial Biotransformation [12] | Bacterial Biotransformation [13] | Bacterial Biotransformation [14] | Bacterial Biotransformation [15] | Bacterial Biotransformation [16] | Bacterial Biotransformation [17] | Bacterial Biotransformation [18] | Bacterial Biotransformation [19] | Bacterial Biotransformation [20] | SMILES |
| --- | --- | --- | --- | --- | --- | --- | --- | --- | --- | --- | --- | --- | --- | --- | --- | --- | --- | --- | --- | --- |
| Compound NOT metabolized | Compound NOT metabolized | Compound NOT metabolized | Compound NOT metabolized | Compound NOT metabolized | Compound NOT metabolized | Compound NOT metabolized | Compound NOT metabolized | Compound NOT metabolized | Compound NOT metabolized | Compound NOT metabolized | Compound NOT metabolized | Compound NOT metabolized | Compound NOT metabolized | Compound NOT metabolized | Compound NOT metabolized | Compound NOT metabolized | Compound NOT metabolized | Compound NOT metabolized |  | COC(=O)C1=C(C)NC(C)=C(C(=O)OC(C)C)C1c1cccc2nonc12 (centres undefined) [ISRADIPINE] |
| Compound NOT metabolized | Compound NOT metabolized | Compound NOT metabolized |  | Compound NOT metabolized | Compound NOT metabolized | Compound NOT metabolized | Compound NOT metabolized | Compound NOT metabolized | Compound NOT metabolized | Compound NOT metabolized | Compound NOT metabolized | Compound NOT metabolized | Compound NOT metabolized | Compound NOT metabolized | Compound NOT metabolized | Compound NOT metabolized | Compound NOT metabolized | Compound NOT metabolized | Compound NOT metabolized | CCc1nn(CCCN2CCN(c3cccc(Cl)c3)CC2)c(=O)n1CCOc1ccccc1 [NEFAZODONE] |
| Compound NOT metabolized | Compound NOT metabolized | Compound NOT metabolized | Compound NOT metabolized |  | Compound NOT metabolized | Compound NOT metabolized | Compound NOT metabolized | Compound NOT metabolized | Compound NOT metabolized | Compound NOT metabolized | Compound NOT metabolized | Compound NOT metabolized | Compound NOT metabolized | Compound NOT metabolized | Compound NOT metabolized | Compound NOT metabolized | Compound NOT metabolized | Compound NOT metabolized | Compound NOT metabolized | CC(C)(C(=O)O)c1ccc(C(O)CCCN2CCC(C(O)(c3ccccc3)c3ccccc3)CC2)cc1 (centres undefined) [FEXOFENADINE] |
